# Active and inactive are the calls of the source.
# What was measured:
# [1] = molecular target: Alkaline phosphatase, placental type (Homo sapiens, UniProt P05187); test: PLAP enzyme inhibitors, confirmation, biochemical, luminescence (AID 1512); type: functional
# [2] = molecular target: T1, G-protein coupled receptor 35 (Homo sapiens, UniProt Q9HC97); test: SAR analysis of Agonists of the GPR35 Receptor using an Image-Based Assay - Set 4. [Related pubchem assays (depositor defined):AID2013, AID2026]; type: functional
# [3] = molecular target: T2, Cannabinoid receptor 1 (Homo sapiens, UniProt P21554); test: SAR analysis of agonists of the Cannabinoid Receptor 1 using an Image-Based Assay - Set 4. [Related pubchem assays (depositor defined):AID2013, AID2026]; type: functional
# [4] = molecular target: T1, G-protein coupled receptor 35; test: SAR analysis of Antagonists of the GPR35 Receptor using an Image-Based Assay - Set 6. [Related pubchem assays (depositor defined):AID2013, AID2026]; type: functional
# [5] = molecular target: T2, Cannabinoid receptor 1; test: SAR analysis of antagonists of the Cannabinoid Receptor 1 using an Image-Based Assay - Set 4. [Related pubchem assays (depositor defined):AID2013, AID2026]; type: functional
# [6] = molecular target: G-protein coupled receptor 55 (Homo sapiens, UniProt Q9Y2T6); test: SAR Analysis of Selective Antagonists of GPR55 using an Image-Based Assay - Set 4. [Related pubchem assays (depositor defined):AID2013, AID2026]; type: functional;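 also: antagonism of response to 5 µM lysophosphatidylinositol agonist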
# [7] = molecular target: T3, Cannabinoid receptor 2 (Homo sapiens, UniProt P34972); test: SAR analysis of antagonists of the Cannabinoid Receptor 2 using an Image-Based Assay - Set 3. [Related pubchem assays (depositor defined):AID2013, AID2026]; type: functional
# [8] = molecular target: T3, Cannabinoid receptor 2; test: SAR analysis of agonists of the Cannabinoid Receptor 2 using an Image-Based Assay - Set 3. [Related pubchem assays (depositor defined):AID2013, AID2026]; type: functional
# [9] = inhibitors of intracellular T. cruzi replication, confirmation, NIH3T3 host cells, beta-gal luminescence (AID 2044); type: functional, cell-based;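 also: intracellular parasites grown in NIH/3T3 mouse fibroblasts as host cells; luminescent beta-galactosidase reporter signal from transgenic T. cruzi replicating inside host cells; inhibitors lower the luminescence signal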
# [10] = cytotoxicity toward NIH3T3 fibroblasts, dose response, counter-screen, cell-based, ATP luminescence, mouse fibroblasts (AID 2010); type: functional;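 also: cells exposed to compound for about 90 hours before reading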
# [11] = system: Escherichia coli; test: microbe, parasite or virus in culture
# [12] = molecular target: T4, C-C chemokine receptor type 6 (Homo sapiens, UniProt P51684); test: CCR6 receptor antagonists, dose response, cell-based, luminescent beta-arrestin readout (AID 504728); type: functional
# T4 sequence (P51684 whole entry): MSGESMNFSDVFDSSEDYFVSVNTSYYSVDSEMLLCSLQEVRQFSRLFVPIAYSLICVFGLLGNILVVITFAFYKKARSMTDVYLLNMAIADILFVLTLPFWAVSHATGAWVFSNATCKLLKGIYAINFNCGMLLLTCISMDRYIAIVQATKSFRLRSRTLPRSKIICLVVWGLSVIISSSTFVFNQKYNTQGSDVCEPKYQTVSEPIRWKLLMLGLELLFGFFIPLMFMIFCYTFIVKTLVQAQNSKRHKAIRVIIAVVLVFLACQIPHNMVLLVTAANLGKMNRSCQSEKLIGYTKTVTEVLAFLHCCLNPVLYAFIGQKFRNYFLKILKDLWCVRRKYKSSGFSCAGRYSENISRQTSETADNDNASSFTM
# [13] = molecular target: Beta-galactosidase (Escherichia coli, UniProt Q8VNN2); test: beta-galactosidase enzyme inhibitors and activators, dose response, artefact control for CCR6 antagonist project, biochemical, E. coli enzyme, set 3 (AID 504712); type: functional
# [14] = molecular target: Heat shock protein HSP 90-alpha (Homo sapiens, UniProt P07900); type: functional, organism-based
# [15] = molecular target: T5, Corticotropin-releasing factor receptor 2/Corticotropin-releasing factor-binding protein (Homo sapiens, UniProt P24387+Q13324); test: Dose Response confirmation of uHTS hits for small molecule antagonists of the CRF-binding protein and CRF-R2 receptor complex.; type: functional; settings: read-out: IC50_Mean
# T5 sequence (Q13324 whole entry): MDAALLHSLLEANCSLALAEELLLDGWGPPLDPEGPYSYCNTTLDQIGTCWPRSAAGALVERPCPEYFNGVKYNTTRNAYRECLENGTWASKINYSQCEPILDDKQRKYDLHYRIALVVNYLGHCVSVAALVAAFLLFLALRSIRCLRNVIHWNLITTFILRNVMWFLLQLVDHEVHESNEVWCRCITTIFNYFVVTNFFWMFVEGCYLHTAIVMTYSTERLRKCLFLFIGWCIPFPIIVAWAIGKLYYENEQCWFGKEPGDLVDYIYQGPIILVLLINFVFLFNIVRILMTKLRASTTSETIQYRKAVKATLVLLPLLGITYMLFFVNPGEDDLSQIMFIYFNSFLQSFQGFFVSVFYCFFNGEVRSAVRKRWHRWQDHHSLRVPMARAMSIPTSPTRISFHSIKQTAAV
# T5 sequence (P24387 whole entry): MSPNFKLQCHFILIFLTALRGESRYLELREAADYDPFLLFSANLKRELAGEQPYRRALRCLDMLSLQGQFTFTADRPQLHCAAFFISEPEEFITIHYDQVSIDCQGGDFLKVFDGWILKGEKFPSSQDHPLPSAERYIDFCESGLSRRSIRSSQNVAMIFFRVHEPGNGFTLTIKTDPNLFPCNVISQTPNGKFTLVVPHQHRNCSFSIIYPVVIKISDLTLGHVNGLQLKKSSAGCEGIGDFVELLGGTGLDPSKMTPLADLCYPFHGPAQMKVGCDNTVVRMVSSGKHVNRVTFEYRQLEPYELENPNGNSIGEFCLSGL
# [16] = molecular target: T5, Corticotropin-releasing factor receptor 2/Corticotropin-releasing factor-binding protein; test: activators of CRF receptor 2 with binding protein – uHTS hits, confirmation (AID 602473); type: functional; settings: read-out: EC50_Mean
# [17] = Shn3 3'UTR reporter inhibitors, dose response, cell-based, Clone20 osteoblasts, firefly luciferase, cherry-picked (AID 624132); type: functional;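 also: firefly luciferase luminescence from reporter carrying the Shn3 3'UTR in osteoblasts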
# [18] = HepG2 cell cytotoxicity, dose response, cytotoxicity control for Shn3 inhibitor project, CellTiter-Glo, cherry-picked (AID 624134); type: functional, cell-based
# [19] = control 3'UTR Renilla luciferase suppression, dose response, counter-screen for Shn3 inhibitor project, cell-based, Clone20-Shn3RL, cherry-picked (AID 624133); type: functional
# [20] = molecular target: Photoreceptor-specific nuclear receptor (Homo sapiens, UniProt Q9Y5X4); type: functional, cell-based;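 also: CHO-S cells with Gal4-NCOR and VP16-NR2E3 two-hybrid luciferase reporter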
# [21] = molecular target: Paired box protein Pax-8 (Homo sapiens, UniProt Q06710); test: inhibitors of PAX8-driven TPO luciferase reporter, dose response, RMG-I cells, cherry-pick (AID 687027); type: functional, cell-based;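 also: luciferase reporter driven by Pax8 target thyroperoxidase promoter measured by SteadyGlo luminescence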
# [22] = A549 cell cytotoxicity, dose response, cytotoxicity control, plate reader, cherry-pick, antagonist series (AID 743412); type: functional, cell-based
# [23] = HepG2 cell cytotoxicity, dose response, cytotoxicity control, plate reader, cherry-pick, antagonist series (AID 743416); type: functional, cell-based
# [24] = LGR2 antagonists, dose response, cell-based, HEK293, CRE-luciferase reporter, cherry pick, set 2 (AID 743343); type: functional;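 also: transfected cells were stimulated with diluted bursicon conditioned medium after compound addition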
# [25] = MC4R antagonists, dose response, counter-screen for LGR2 antagonist project, cell-based, plate reader, cherry pick (AID 743444); type: functional;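 also: transfected HEK 293 cells stimulated with alpha-MSH peptide; potency of inhibitors of the alpha-MSH evoked signal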
# [26] = HEK293 cell cytotoxicity, dose response, cytotoxicity control, plate reader, cherry-picked samples (AID 743446); type: functional, cell-based
# [27] = molecular target: T6, Hexokinase (Trypanosoma brucei, UniProt Q38C41); test: Confirmation assay for inhibitors of Trypanosoma brucei hexokinase 1-Analogue-first series. [Related pubchem assays (depositor defined):AID1430, AID1632, AID2516, AID2560, AID2579, AID2600, AID449725, AID492951]; type: functional
# T6 sequence (Q38C41 whole entry): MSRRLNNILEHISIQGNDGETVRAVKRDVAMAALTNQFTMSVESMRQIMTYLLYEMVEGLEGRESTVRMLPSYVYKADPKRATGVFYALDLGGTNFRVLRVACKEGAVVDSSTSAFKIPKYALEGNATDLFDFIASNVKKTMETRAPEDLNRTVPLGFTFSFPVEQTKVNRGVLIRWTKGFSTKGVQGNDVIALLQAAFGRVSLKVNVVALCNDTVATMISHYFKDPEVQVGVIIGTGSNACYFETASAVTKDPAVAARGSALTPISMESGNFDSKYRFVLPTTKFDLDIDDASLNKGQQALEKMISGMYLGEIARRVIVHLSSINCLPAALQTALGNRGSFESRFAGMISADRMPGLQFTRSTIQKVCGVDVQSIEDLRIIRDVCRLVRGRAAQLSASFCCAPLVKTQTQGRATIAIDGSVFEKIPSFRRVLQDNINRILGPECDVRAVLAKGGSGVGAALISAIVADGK
# [28] = molecular target: T7, CAAX prenyl protease 2 (Saccharomyces cerevisiae S288c, UniProt Q03530); type: biochemical
# T7 sequence (Q03530 whole entry): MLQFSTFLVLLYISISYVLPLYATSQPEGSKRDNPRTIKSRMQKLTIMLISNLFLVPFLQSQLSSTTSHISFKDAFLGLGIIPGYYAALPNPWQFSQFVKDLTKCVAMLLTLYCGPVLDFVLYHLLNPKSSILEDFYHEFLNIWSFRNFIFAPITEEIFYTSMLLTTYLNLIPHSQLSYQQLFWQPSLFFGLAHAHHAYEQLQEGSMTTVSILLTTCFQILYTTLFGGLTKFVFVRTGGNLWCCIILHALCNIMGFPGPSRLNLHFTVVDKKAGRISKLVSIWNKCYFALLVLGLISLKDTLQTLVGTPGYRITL
# [29] = molecular target: T8, Voltage-gated N-type calcium channel alpha-1B subunit/Amyloid beta A4 precursor protein-binding family A member 1 (Homo sapiens, UniProt Q00975+Q02410); type: protein assay
# [30] = molecular target: T8, Voltage-gated N-type calcium channel alpha-1B subunit/Amyloid beta A4 precursor protein-binding family A member 1; type: protein assay; remark: listed apart in the source
# [31] = molecular target: Induced myeloid leukemia cell differentiation protein Mcl-1 (Homo sapiens, UniProt Q07820); type: functional
# [32] = molecular target: Cytochrome P450 2C9 (Homo sapiens, UniProt P11712)
# [33] = molecular target: Cytochrome P450 2D6 (Homo sapiens, UniProt P10635);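 also: CYP2D6 member of a cytochrome P450 panel assay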
# T2 sequence (P21554 whole entry): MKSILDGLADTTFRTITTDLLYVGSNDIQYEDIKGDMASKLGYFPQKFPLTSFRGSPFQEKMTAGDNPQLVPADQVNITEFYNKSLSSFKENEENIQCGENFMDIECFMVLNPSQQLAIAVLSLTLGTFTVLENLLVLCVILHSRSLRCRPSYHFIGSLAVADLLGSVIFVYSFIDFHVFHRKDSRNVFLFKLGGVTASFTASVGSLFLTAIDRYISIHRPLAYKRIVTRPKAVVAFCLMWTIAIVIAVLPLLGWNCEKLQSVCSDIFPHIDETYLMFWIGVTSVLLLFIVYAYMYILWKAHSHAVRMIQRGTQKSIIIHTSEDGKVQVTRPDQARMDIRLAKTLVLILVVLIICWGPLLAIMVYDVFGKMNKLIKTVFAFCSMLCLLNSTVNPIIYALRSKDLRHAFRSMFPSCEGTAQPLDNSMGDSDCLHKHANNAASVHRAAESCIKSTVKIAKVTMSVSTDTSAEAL
# T8 sequence (Q00975 whole entry): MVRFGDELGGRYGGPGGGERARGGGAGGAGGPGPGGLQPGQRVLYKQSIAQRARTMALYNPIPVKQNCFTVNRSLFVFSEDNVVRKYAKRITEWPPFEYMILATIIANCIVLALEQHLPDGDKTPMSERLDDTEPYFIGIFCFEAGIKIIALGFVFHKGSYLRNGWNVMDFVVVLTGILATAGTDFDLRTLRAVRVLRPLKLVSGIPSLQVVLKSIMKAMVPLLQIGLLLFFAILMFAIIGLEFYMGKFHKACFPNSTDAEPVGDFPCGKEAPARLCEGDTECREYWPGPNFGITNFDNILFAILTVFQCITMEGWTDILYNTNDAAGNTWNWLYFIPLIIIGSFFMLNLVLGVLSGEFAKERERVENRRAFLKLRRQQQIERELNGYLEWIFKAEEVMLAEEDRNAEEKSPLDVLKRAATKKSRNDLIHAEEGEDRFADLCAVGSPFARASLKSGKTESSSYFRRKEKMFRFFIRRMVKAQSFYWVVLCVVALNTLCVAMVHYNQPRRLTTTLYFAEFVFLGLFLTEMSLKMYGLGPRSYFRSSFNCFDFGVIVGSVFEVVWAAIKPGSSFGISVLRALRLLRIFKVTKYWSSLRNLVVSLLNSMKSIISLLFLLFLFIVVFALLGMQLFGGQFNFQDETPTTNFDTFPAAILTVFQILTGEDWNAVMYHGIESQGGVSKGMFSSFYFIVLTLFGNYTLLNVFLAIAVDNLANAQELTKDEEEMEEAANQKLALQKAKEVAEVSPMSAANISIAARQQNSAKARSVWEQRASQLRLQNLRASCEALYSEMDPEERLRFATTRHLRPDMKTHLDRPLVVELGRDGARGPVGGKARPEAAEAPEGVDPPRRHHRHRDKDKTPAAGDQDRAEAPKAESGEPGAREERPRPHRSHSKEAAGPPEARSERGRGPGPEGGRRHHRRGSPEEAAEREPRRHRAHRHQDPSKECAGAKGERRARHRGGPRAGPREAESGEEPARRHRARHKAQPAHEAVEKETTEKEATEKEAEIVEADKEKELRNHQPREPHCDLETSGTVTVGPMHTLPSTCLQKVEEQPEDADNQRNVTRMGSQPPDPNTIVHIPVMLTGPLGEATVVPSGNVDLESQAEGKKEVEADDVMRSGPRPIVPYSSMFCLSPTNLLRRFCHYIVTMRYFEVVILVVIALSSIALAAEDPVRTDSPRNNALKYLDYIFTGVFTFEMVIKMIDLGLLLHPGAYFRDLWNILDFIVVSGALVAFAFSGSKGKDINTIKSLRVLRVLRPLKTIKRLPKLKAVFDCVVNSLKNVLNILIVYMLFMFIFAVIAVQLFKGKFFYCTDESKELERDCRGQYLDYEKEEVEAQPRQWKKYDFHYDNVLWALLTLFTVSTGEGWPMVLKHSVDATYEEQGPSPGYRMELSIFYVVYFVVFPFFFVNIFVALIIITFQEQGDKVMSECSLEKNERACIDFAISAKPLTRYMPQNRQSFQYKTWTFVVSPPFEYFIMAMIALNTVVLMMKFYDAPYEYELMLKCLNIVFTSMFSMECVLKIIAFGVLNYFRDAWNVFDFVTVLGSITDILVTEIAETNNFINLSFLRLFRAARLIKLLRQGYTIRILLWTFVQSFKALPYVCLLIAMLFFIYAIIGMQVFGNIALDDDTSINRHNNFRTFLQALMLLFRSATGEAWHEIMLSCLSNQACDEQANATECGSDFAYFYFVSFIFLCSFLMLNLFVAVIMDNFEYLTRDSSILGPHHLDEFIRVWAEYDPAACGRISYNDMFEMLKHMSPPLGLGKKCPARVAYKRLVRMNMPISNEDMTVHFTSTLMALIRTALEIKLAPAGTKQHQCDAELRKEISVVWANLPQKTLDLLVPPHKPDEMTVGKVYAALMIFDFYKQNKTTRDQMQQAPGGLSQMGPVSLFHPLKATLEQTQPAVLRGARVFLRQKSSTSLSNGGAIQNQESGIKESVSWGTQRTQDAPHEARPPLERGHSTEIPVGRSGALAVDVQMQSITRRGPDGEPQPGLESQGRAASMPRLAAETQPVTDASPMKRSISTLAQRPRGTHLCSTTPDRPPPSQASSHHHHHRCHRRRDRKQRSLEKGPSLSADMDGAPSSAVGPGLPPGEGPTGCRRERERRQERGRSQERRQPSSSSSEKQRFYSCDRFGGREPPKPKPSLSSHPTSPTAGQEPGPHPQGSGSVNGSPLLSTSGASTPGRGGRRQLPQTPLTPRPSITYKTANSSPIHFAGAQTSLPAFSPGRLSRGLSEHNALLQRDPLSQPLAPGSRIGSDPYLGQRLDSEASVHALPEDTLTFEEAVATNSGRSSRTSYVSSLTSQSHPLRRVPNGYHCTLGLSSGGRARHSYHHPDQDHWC
# T8 sequence (Q02410 whole entry): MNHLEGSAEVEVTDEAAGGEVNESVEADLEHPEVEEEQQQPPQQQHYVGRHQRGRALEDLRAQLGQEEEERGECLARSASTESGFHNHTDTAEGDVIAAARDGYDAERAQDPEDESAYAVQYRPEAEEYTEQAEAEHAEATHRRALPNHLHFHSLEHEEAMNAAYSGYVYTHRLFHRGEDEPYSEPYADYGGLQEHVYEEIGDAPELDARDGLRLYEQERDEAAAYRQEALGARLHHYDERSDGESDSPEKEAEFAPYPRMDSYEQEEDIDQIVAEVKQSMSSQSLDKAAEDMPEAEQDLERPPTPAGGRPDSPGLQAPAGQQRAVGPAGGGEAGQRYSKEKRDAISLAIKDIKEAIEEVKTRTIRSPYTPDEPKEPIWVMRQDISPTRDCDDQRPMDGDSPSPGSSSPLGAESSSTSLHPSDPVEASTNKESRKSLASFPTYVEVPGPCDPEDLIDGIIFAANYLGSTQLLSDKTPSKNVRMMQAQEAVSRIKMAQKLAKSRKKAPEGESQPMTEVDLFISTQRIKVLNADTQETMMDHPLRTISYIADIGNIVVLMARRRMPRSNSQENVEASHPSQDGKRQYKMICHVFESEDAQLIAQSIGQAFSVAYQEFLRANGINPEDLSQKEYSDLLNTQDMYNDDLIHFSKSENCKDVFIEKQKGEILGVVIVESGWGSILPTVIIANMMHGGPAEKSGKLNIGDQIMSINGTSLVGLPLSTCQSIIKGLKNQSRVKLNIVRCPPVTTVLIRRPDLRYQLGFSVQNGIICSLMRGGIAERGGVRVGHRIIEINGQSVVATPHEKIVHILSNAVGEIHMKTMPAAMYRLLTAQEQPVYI
# G-protein coupled receptor 55, sequence (Q9Y2T6 whole entry): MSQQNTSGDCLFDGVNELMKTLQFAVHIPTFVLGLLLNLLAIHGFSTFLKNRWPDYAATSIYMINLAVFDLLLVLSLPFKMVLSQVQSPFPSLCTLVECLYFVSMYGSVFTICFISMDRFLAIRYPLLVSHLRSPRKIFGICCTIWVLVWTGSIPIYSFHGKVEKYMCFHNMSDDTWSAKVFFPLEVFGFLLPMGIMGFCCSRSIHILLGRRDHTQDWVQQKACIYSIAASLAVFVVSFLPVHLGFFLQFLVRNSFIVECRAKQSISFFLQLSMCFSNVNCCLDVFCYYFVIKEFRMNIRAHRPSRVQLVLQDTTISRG
# T3 sequence (P34972 whole entry): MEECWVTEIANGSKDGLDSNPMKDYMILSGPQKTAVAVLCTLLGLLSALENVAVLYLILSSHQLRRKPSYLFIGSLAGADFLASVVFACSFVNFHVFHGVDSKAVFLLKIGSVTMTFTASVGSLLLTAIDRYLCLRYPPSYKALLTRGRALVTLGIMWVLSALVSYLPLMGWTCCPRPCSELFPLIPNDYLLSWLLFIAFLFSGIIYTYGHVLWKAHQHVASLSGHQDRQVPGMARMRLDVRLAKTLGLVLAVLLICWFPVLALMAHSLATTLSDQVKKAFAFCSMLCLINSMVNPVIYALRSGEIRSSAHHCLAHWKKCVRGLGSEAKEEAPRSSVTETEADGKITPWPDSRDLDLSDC
# T1 sequence (Q9HC97 whole entry): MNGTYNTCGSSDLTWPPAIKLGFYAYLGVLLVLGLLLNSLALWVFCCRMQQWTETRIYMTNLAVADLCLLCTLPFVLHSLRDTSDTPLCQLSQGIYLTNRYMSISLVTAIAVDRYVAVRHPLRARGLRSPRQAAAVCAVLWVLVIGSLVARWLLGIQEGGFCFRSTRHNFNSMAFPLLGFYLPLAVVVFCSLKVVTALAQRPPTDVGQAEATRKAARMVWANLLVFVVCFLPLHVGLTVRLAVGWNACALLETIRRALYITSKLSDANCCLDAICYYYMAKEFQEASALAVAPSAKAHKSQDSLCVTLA
# Photoreceptor-specific nuclear receptor, sequence (Q9Y5X4 whole entry, the tested form may be a part): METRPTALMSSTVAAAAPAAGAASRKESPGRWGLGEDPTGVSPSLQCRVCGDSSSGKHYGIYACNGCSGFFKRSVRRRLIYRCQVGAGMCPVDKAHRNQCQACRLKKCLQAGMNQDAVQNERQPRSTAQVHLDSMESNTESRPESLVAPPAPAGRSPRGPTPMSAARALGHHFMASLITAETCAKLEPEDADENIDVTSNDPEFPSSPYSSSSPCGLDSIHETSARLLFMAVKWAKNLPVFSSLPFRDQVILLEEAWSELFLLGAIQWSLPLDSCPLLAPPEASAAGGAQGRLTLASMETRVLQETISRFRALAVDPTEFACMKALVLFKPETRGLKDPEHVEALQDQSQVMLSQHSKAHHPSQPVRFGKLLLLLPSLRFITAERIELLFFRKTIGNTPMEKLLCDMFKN
smiles,measurement,setting,value
Cn1cc(Br)c(C(=O)NNC(=O)c2cccc(Br)c2)n1,IC50,[1],> 100 µM (inactive)
CC(C)NC(=O)c1cc2c(=O)n3ccccc3nc2n(C2CCCC2)c1=N,EC50,[2],> 32 µM (inactive)
same,EC50,[3],> 32 µM (inactive)
same,IC50,[4],> 32 µM (inactive)
same,IC50,[5],> 32 µM (inactive)
same,IC50,[6],> 32 µM (inactive)
same,IC50,[7],> 32 µM (inactive)
same,EC50,[8],9.06 µM (active)
COc1ccc(-c2nnc(C)c3nn(-c4ccc(Cl)cc4)cc23)cc1,EC50,[2],> 32 µM (inactive)
same,EC50,[3],> 32 µM (inactive)
same,IC50,[4],> 32 µM (inactive)
same,IC50,[5],1.47 µM (active)
same,IC50,[6],3.56 µM (active)
same,IC50,[7],13.2 µM (inactive)
same,EC50,[8],> 32 µM (inactive)
Clc1ccc(C2[C@H]3CN(Cc4cccnc4)[C@H](c4ccccc4)C34CC2(c2ccccc2)C4)cn1 (some centres not stated),EC50,[9],1.61 µM (active)
same,EC50,[10],9.94 µM (active)
same,AC50,[11],34.8 µM (active)
COc1ccc(/C=C2/CCC(CN3CCOCC3)C2=O)cc1 (configuration not stated),IC50,[12],21.1 µM (inactive)
same,IC50,[13],> 66.6 µM (inactive)
same,AC50,[14],0.902 µM (active)
same,IC50,[15],> 47.1 µM (inactive)
same,EC50,[16],> 53 µM (inactive)
Cc1nnc(-c2ccc(Cl)cc2)c2cn(-c3ccccc3)nc12,EC50,[2],> 32 µM (inactive)
same,EC50,[3],> 32 µM (inactive)
same,IC50,[4],> 32 µM (inactive)
same,IC50,[5],3.58 µM (active)
same,IC50,[6],19.2 µM (inactive)
same,IC50,[7],19.5 µM (inactive)
same,EC50,[8],> 32 µM (inactive)
Cc1nc(-c2cccc(S(=O)(=O)N3CCOCC3)c2)cs1,AC50,[11],35.7 µM (active)
CC(=O)Nc1ccc(Sc2ccc([N+](=O)[O-])o2)cc1,IC50,[12],> 66.6 µM (inactive)
same,IC50,[13],> 66.6 µM (inactive)
same,AC50,[17],2.15 µM (active)
same,AC50,[18],20.6 µM (active)
same,AC50,[19],11.2 µM (active)
same,IC50,[20],2.72 µM (active)
same,AC50,[21],7.36 µM (active)
same,AC50,[22],37 µM (active)
same,AC50,[23],13.8 µM (active)
same,AC50,[24],26.4 µM (active)
same,AC50,[25],22.7 µM (active)
same,AC50,[26],7.13 µM (active)
Cc1ccc(C(=O)Nc2cc(Cl)ccc2C(=O)O)cc1C,IC50,[27],10.7 µM (active)
CC1CCN(C(=O)C2CCN(S(=O)(=O)c3ccc(-n4cnnn4)cc3)CC2)CC1,AC50,[28],22.8 µM (active)
COC(=O)c1ccc(/C=C2/SC(=S)N(CCCC(=O)Nc3ccc(O)cc3)C2=O)cc1,IC50,[29],35.4 µM (active)
same,IC50,[30],> 50 µM (inactive)
CN(Cc1ccccc1)C(=O)Cn1sc2ccccc2c1=O,IC50,[27],7.87 µM (active)
CC(=O)Nc1ccc(C2=NN=C(Nc3cccc(S(=O)(=O)N(C)C)c3)SC2)cc1,IC50,[29],3.56 µM (active)
same,IC50,[30],> 50 µM (inactive)
same,IC50,[31],4.2 µM (active)
Cc1ccc(C)c(C(=O)C2=C(O)C(=O)N(Cc3cccnc3)C2c2cccnc2)c1 (configuration not stated),AC50,[32],3.16 µM (inconclusive)
same,AC50,[33],inconclusive
C/C=C\C=C/C(=O)Nc1cccc(C2=NOC3(C2)C[C@@H](C(N)=O)N(C(=O)/C=C/C=C\C)C3)c1 (some centres not stated),IC50,[29],10.1 µM (active)
same,IC50,[30],4.01 µM (active)
O=C(Nc1cc(Cl)ccc1C(=O)O)c1ccc2ccccc2c1,IC50,[27],5.41 µM (active)
CNC(=O)OCC[N+](C)(C)C,AC50,[33],inconclusive

# From ChEMBL document CHEMBL1201862, “PubChem BioAssay data set” (2004)
